In patent US10047050B2, “3,4-di-substituted pyridine compound, methods of using and compositions comprising the same” (ARDEA BIOSCIENCES, INC., priority 2011, dated 2018):
“And” between values parts separate entries of the source, which are not always exact repeats. Equal entries are not always repeated.

Test system: serum uric acid
Assay: Multi-dose Phase I clinical trial, serum uric acid (sUA), once daily for 10 days
Format: in vivo, human
Conditions: for % sUA change (from baseline), Mean (3-11) / Absolute sUA concentration, Mean (3-11): group 9, 10 mg once daily for 10 days, mean of subjects 3-11; for % sUA change (from baseline), Mean (4-12) / Absolute sUA concentration, Mean (4-12) / Absolute sUA concentration: group 7, 1 mg once daily for 10 days; for % sUA change (from baseline), Mean (4-12) / Absolute sUA concentration, Mean (4-12): mean of subjects 4-12; for Absolute sUA concentration: individual subjects 4-12
From the text: A Phase 1, Randomized, Double-Blind, Placebo-Controlled Study to Evaluate Safety, Tolerability, Pharmacokinetics and Preliminary Food Effect of Multiple Rising Doses of a URAT1 Inhibitor, in Healthy Adult Male Volunteers.
Fasted subjects receive oral doses of active or placebo, once daily, for 10 days, at the following doses:
36 subjects in 3 dose groups, 12 subjects/group, are randomized […] to receive active (9/group) or placebo ([…]). All study procedures are the same regardless of whether subject receives active or placebo. Total duration of subject participation, including screening period, is ˜2-4 weeks, and the total volume of blood collected from each subject during the entire study <500 mL, (less than typically collected during a volunteer blood donation).
5 mg, active and placebo, tablets packaged in 35 count HDPE bottles, stored at controlled room temperature (15-30° C.). Placebo tablets are designed to match the active tablets—identical size, form, taste, and color, and containing the same excipients. 1 mg doses were administered as oral solutions.
Subjects dosed in the morning of Days 1-10 with ˜240 mL of room temp water.
Urine, serum and plasma samples collected periodically
PD samples frozen (−20° C.) and stored; all samples from a given subject assayed in a single analytical run.

For `CC(C)(Sc1ccncc1-c1ccc(C#N)c2ccccc12)C(=O)O` [2-((3-(4-cyanonaphthalen-1-yl)pyridin-4-yl)thio)-2-methylpropanoic acid], the “% sUA change (from baseline), Mean (3-11)” value (“% sUA change … (3-11)” below) (Time 0 (baseline)) was 0%, the “Absolute sUA concentration, Mean (3-11)” value (Time 0 (baseline)) was 6.4 mg/dL and the “% sUA change … (3-11)” value (Time 6) was −30.2%. For the same compound, the “Absolute sUA concentration, Mean (3-11)” value (Time 6) was 4.5 mg/dL, the “% sUA change … (3-11)” value (Time 12) was −36.8% and the “Absolute sUA concentration, Mean (3-11)” value (Time 12) was 4.1 mg/dL. The “% sUA change … (3-11)” value (Time 24) was −32.0%, the “Absolute sUA concentration, Mean (3-11)” value (Time 24) was 4.4 mg/dL and the “% sUA change … (3-11)” value (Time 48) was −35.0%. The “Absolute sUA concentration, Mean (3-11)” value (Time 48) was 4.1 mg/dL, the “% sUA change … (3-11)” value (Time 72) was −49.7% and the “Absolute sUA concentration, Mean (3-11)” value (Time 72) was 3.2 mg/dL. The “% sUA change … (3-11)” value (Time 96) was −53.7%, the “Absolute sUA concentration, Mean (3-11)” value (Time 96) was 3.0 mg/dL and the “% sUA change … (3-11)” value (Time 102) was −55.2%. For the same compound, the “Absolute sUA concentration, Mean (3-11)” value (Time 102) was 2.9 mg/dL, the “% sUA change … (3-11)” value (Time 108) was −57.2% and the “Absolute sUA concentration, Mean (3-11)” value (Time 108) was 2.7 mg/dL. For the same compound, the “% sUA change … (3-11)” value (Time 120) was −47.0%, the “Absolute sUA concentration, Mean (3-11)” value (Time 120) was 3.4 mg/dL and the “% sUA change … (3-11)” value (Time 144) was −44.3%. For the same compound, the “Absolute sUA concentration, Mean (3-11)” value (Time 144) was 3.5 mg/dL, the “% sUA change … (3-11)” value (Time 168) was −49.6% and the “Absolute sUA concentration, Mean (3-11)” value (Time 168) was 3.2 mg/dL. For the same compound, the “% sUA change … (3-11)” value (Time 192) was −55.8%, the “Absolute sUA concentration, Mean (3-11)” value (Time 192) was 2.8 mg/dL and the “% sUA change … (3-11)” value (Time 216) was −51.3%. The “Absolute sUA concentration, Mean (3-11)” value (Time 216) was 3.1 mg/dL, the “% sUA change … (3-11)” value (Time 222, post dosing) was −56.1% and the “Absolute sUA concentration, Mean (3-11)” value (Time 222, post dosing) was 2.8 mg/dL. The “% sUA change … (3-11)” value (Time 228, post dosing) was −57.8%, the “Absolute sUA concentration, Mean (3-11)” value (Time 228, post dosing) was 2.7 mg/dL and the “% sUA change … (3-11)” value (Time 240, post dosing) was −48.6%. The “Absolute sUA concentration, Mean (3-11)” value (Time 240, post dosing) was 3.3 mg/dL, the “% sUA change … (3-11)” value (Time 246, post dosing) was −42.8% and the “Absolute sUA concentration, Mean (3-11)” value (Time 246, post dosing) was 3.7 mg/dL. For the same compound, the “% sUA change … (3-11)” value (Time 252, post dosing) was −43.6%, the “Absolute sUA concentration, Mean (3-11)” value (Time 252, post dosing) was 3.6 mg/dL and the “% sUA change … (3-11)” value (Time 264, post dosing) was −38.9%. The “Absolute sUA concentration, Mean (3-11)” value (Time 264, post dosing) was 3.9 mg/dL, the “% sUA change … (3-11)” value (Time 270, post dosing) was −36.1% and the “Absolute sUA concentration, Mean (3-11)” value (Time 270, post dosing) was 4.1 mg/dL. For the same compound, the “% sUA change … (3-11)” value (Time 288, post dosing) was −35.1%, the “Absolute sUA concentration, Mean (3-11)” value (Time 288, post dosing) was 4.2 mg/dL and the “% sUA change … (3-11)” value (Time 312, post dosing) was −25.9%. The “Absolute sUA concentration, Mean (3-11)” value (Time 312, post dosing) was 4.7 mg/dL, the “% sUA change (from baseline), Mean (4-12)” value (“% sUA change … (4-12)” for short) (Time 0) was 0% and the “Absolute sUA concentration, Mean (4-12)” value (Time 0) was 6.2 mg/dL. For the same compound, the “% sUA change … (4-12)” value (Time 6) was −3.0%, the “Absolute sUA concentration, Mean (4-12)” value (Time 6) was 6.0 mg/dL and the “% sUA change … (4-12)” value (Time 12) was −9.2%. The “Absolute sUA concentration, Mean (4-12)” value (Time 12) was 5.6 mg/dL, the “% sUA change … (4-12)” value (Time 24) was 1.4% and the “Absolute sUA concentration, Mean (4-12)” value (Time 24) was 6.2 mg/dL. For the same compound, the “% sUA change … (4-12)” value (Time 48) was −17.6%, the “Absolute sUA concentration, Mean (4-12)” value (Time 48) was 5.1 mg/dL and the “% sUA change … (4-12)” value (Time 72) was −3.4%. For the same compound, the “Absolute sUA concentration, Mean (4-12)” value (Time 72) was 6.0 mg/dL, the “Absolute sUA concentration” value (Time 96) was 5.0 mg/dL (2×) and 5.1 mg/dL (2×) and 6.7 mg/dL (2×) and 6.1 mg/dL and 6.0 mg/dL and 5.5 mg/dL and the “% sUA change … (4-12)” value (Time 96) was −7.9%. For the same compound, the “Absolute sUA concentration, Mean (4-12)” value (Time 96) was 5.7 mg/dL, the “Absolute sUA concentration” value (Time 102) was 4.4 mg/dL and 4.9 mg/dL (2×) and 6.2 mg/dL (2×) and 5.9 mg/dL and 5.7 mg/dL and 4.6 mg/dL and 5.4 mg/dL and the “% sUA change … (4-12)” value (Time 102) was −13.2%. The “Absolute sUA concentration, Mean (4-12)” value (Time 102) was 5.4 mg/dL, the “Absolute sUA concentration” value (Time 108) was 4.1 mg/dL and 4.4 mg/dL and 4.8 mg/dL and 6.1 mg/dL and 5.9 mg/dL and 5.4 mg/dL and 5.6 mg/dL and 4.3 mg/dL and 5.0 mg/dL and the “% sUA change … (4-12)” value (Time 108) was −18.0%. The “Absolute sUA concentration, Mean (4-12)” value (Time 108) was 5.1 mg/dL, the “Absolute sUA concentration” value (Time 120) was 4.6 mg/dL and 5.0 mg/dL (2×) and 4.9 mg/dL and 6.6 mg/dL and 6.2 mg/dL (2×) and 5.8 mg/dL and 5.6 mg/dL and the “% sUA change … (4-12)” value (Time 120) was −10.3%. The “Absolute sUA concentration, Mean (4-12)” value (Time 120) was 5.5 mg/dL, the “Absolute sUA concentration” value (Time 144) was 4.6 mg/dL and 5.0 mg/dL (2×) and 4.8 mg/dL and 6.5 mg/dL and 6.2 mg/dL and 6.1 mg/dL and 5.8 mg/dL and 5.5 mg/dL and the “% sUA change … (4-12)” value (Time 144) was −11.0%. For the same compound, the “Absolute sUA concentration, Mean (4-12)” value (Time 144) was 5.5 mg/dL, the “Absolute sUA concentration” value (Time 168) was 5.2 mg/dL and 5.8 mg/dL and 5.6 mg/dL and 7.2 mg/dL and 6.8 mg/dL and 6.3 mg/dL and 6.5 mg/dL and 5.4 mg/dL and 6.2 mg/dL and the “% sUA change … (4-12)” value (Time 168) was −0.8%.
